Assay results reported in ChEMBL document CHEMBL5303573, “Mapping human microbiome drug metabolism by gut bacteria and their genes” (Nature, 2019).

Experiments:
[1] = The drug is tested on Bacteroides finegoldii strain: DSM17565 for biotransformation. The drug concentrations were measured before and after a 12-h incubation by liquid-chromatography-coupled mass spectrometry (LC–MS); conditions: 2 µM
[2] = The drug is tested on Bacteroides uniformis strain: ATCC8492 for biotransformation. The drug concentrations were measured before and after a 12-h incubation by liquid-chromatography-coupled mass spectrometry (LC–MS); conditions: 2 µM
[3] = The drug is tested on Anaerococcus hydrogenalis strain: DSM7454 for biotransformation. The drug concentrations were measured before and after a 12-h incubation by liquid-chromatography-coupled mass spectrometry (LC–MS); conditions: 2 µM
[4] = The drug is tested on Anaerotruncus colihominis strain: DSM17241 for biotransformation. The drug concentrations were measured before and after a 12-h incubation by liquid-chromatography-coupled mass spectrometry (LC–MS); conditions: 2 µM
[5] = The drug is tested on Clostridium sp. strain: fecal isolate for biotransformation. The drug concentrations were measured before and after a 12-h incubation by liquid-chromatography-coupled mass spectrometry (LC–MS); conditions: 2 µM
[6] = target: T1, Acetyl esterase (Acetylxylosidase) (Bacteroides thetaiotaomicron, UniProt Q8ABF8); test: (§1) The drug is tested on Bacteroides thetaiotaomicron strain: VPI-5482 for biotransformation. The drug concentrations were measured before and after a 12-h incubation by liquid-chromatography-coupled mass spectrometry (LC–MS); type: ADME; set-up: dose 2 uM; conditions: 2 µM
T1 sequence (Q8ABF8 whole entry): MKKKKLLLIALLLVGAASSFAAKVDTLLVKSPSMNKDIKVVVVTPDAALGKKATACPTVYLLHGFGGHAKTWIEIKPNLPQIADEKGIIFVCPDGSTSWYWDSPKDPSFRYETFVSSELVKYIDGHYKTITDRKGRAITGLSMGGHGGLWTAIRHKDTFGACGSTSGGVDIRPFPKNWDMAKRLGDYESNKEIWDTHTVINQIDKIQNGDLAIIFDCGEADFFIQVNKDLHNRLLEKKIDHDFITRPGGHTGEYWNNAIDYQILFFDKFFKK

General stress protein = General stress protein (Bacteroides thetaiotaomicron, UniProt Q8A7U5); test: as §1; type: ADME; set-up: dose 2 uM; conditions: 2 µM
Diguanylate cyclase = target: T2, Diguanylate cyclase (Collinsella aerofaciens, UniProt A4EB91); test: (§2) The drug is tested on Collinsella aerofaciens strain: ATCC25986 for biotransformation. The drug concentrations were measured before and after a 12-h incubation by liquid-chromatography-coupled mass spectrometry (LC–MS); type: ADME; set-up: dose 2 uM; conditions: 2 µM
T2 sequence (A4EB91 whole entry): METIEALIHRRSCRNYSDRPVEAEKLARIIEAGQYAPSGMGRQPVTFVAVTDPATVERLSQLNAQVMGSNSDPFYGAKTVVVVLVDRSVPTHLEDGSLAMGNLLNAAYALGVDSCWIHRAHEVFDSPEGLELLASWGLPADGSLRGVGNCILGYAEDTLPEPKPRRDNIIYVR

Flavodoxin = target: T3, Flavodoxin (Collinsella aerofaciens, UniProt A4ED08); test: as §2; type: ADME; set-up: dose 2 uM; conditions: 2 µM
T3 sequence (A4ED08 whole entry): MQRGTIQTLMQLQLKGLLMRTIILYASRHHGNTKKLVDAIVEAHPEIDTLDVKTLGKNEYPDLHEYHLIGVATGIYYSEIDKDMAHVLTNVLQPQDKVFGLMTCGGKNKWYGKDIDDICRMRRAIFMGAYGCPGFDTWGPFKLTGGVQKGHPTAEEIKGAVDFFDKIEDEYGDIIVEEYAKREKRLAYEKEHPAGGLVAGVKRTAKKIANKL

GDSL-like protein = target: T4, GDSL-like protein (Collinsella aerofaciens, UniProt A4E7D0); test: as §2; type: ADME; set-up: dose 2 uM; conditions: 2 µM
T4 sequence (A4E7D0 whole entry): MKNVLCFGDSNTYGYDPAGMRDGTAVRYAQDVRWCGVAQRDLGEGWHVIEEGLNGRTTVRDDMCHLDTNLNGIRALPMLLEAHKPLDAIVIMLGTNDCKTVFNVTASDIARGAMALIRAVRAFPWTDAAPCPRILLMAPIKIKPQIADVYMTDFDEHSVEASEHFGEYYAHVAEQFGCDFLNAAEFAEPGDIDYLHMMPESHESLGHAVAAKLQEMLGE

[7] = target: T5, Pyridine nucleotide-disulfide oxidoreductase (Collinsella aerofaciens, UniProt A4EBM5); test: as §2; type: ADME; set-up: dose 2 uM; conditions: 2 µM
T5 sequence (A4EBM5 whole entry): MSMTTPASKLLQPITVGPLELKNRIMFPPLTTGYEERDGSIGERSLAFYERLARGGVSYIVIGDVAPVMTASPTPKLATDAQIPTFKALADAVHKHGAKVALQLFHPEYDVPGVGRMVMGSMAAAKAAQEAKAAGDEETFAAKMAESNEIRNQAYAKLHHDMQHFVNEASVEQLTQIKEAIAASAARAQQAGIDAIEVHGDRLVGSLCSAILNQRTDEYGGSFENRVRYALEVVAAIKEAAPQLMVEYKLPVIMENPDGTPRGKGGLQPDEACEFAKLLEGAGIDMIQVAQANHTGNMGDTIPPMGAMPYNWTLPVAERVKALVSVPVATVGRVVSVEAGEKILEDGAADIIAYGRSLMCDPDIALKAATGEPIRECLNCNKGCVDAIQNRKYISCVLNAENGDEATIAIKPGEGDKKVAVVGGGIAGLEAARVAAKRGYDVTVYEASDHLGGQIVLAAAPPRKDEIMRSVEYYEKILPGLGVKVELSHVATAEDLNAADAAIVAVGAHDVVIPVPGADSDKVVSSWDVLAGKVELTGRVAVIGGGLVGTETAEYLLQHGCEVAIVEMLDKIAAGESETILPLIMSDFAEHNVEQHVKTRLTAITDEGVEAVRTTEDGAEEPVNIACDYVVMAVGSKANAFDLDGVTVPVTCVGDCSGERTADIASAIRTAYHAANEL

[8] = bacteroides fragilis, 12 h, 2 µM
Description: The drug is tested on Bacteroides fragilis strain: DS-208 for biotransformation. The drug concentrations were measured before and after a 12-h incubation by liquid-chromatography-coupled mass spectrometry (LC–MS)

[9] = anaerostipes sp., 12 h, 2 µM
Description: The drug is tested on Anaerostipes sp. strain: fecal isolate for biotransformation. The drug concentrations were measured before and after a 12-h incubation by liquid-chromatography-coupled mass spectrometry (LC–MS)

[10] = The drug is tested on Clostridium hathewayi strain: DSM13479 for biotransformation. The drug concentrations were measured before and after a 12-h incubation by liquid-chromatography-coupled mass spectrometry (LC–MS); conditions: hungatella hathewayi, 2 µM
[11] = The drug is tested on Clostridium spiroforme strain: DSM1552 for biotransformation. The drug concentrations were measured before and after a 12-h incubation by liquid-chromatography-coupled mass spectrometry (LC–MS); conditions: thomasclavelia spiroformis, 2 µM

General stress protein, sequence (Q8A7U5 1-138, stated change not applied): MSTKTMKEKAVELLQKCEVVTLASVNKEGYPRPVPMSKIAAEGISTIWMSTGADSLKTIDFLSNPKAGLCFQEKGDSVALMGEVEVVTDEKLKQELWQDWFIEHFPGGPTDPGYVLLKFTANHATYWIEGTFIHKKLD

Bacterial Biotransformation [1]	Bacterial Biotransformation [2]	Bacterial Biotransformation [3]	Bacterial Biotransformation [4]	Bacterial Biotransformation [5]	Bacterial Biotransformation [6]	Bacterial Biotransformation (General stress protein)	Bacterial Biotransformation (Diguanylate cyclase)	Bacterial Biotransformation (Flavodoxin)	Bacterial Biotransformation (GDSL-like protein)	Bacterial Biotransformation [7]	Bacterial Biotransformation [8]	Bacterial Biotransformation [9]	Bacterial Biotransformation [10]	Bacterial Biotransformation [11]	SMILES
Compound metabolized	Compound metabolized	Compound metabolized	Compound metabolized	Compound metabolized	Compound metabolized	Compound NOT metabolized	Compound NOT metabolized	Compound NOT metabolized	Compound metabolized	Compound NOT metabolized	Compound metabolized	Compound metabolized			CC(=O)Oc1ccc(C(c2ccc(OC(C)=O)cc2)c2ccccn2)cc1 [BISACODYL]
Compound NOT metabolized	Compound metabolized	Compound NOT metabolized	Compound NOT metabolized	Compound NOT metabolized							Compound metabolized	Compound NOT metabolized	Compound NOT metabolized	Compound NOT metabolized	Clc1cccc(Cl)c1N=C1NCCN1 [CLONIDINE]
Compound metabolized	Compound metabolized	Compound metabolized	Compound metabolized	Compound metabolized	Compound NOT metabolized	Compound NOT metabolized	Compound NOT metabolized	Compound NOT metabolized	Compound NOT metabolized	Compound NOT metabolized	Compound metabolized	Compound metabolized			C#C[C@]1(O)CC[C@H]2[C@@H]3CCC4=Cc5oncc5C[C@]4(C)[C@H]3CC[C@@]21C [DANAZOL]
Compound metabolized	Compound metabolized	Compound metabolized	Compound metabolized	Compound metabolized	Compound NOT metabolized	Compound NOT metabolized	Compound NOT metabolized	Compound NOT metabolized	Compound NOT metabolized	Compound NOT metabolized	Compound metabolized	Compound metabolized			CC(=O)OCC(=O)[C@@]12N=C(C)O[C@@H]1C[C@H]1[C@@H]3CCC4=CC(=O)C=C[C@]4(C)[C@H]3[C@@H](O)C[C@@]12C [DEFLAZACORT]
Compound metabolized	Compound metabolized	Compound metabolized	Compound metabolized	Compound NOT metabolized	Compound metabolized	Compound NOT metabolized	Compound NOT metabolized	Compound NOT metabolized	Compound metabolized	Compound NOT metabolized	Compound metabolized	Compound metabolized			CC(=O)Nc1ccc(OC(C)=O)cc1 [DIACETAMATE]
Compound NOT metabolized	Compound metabolized	Compound metabolized	Compound metabolized	Compound metabolized							Compound metabolized	Compound NOT metabolized	Compound NOT metabolized	Compound NOT metabolized	c1ccc([C@H]2CN3CCSC3=N2)cc1 [LEVAMISOLE]
Compound metabolized	Compound metabolized			Compound metabolized	Compound metabolized	Compound NOT metabolized	Compound NOT metabolized	Compound NOT metabolized	Compound NOT metabolized	Compound NOT metabolized	Compound metabolized	Compound NOT metabolized			CC(=O)SCC(Cc1ccccc1)C(=O)NCC(=O)OCc1ccccc1 (stereo unspecified) [RACECADOTRIL]
Compound metabolized	Compound metabolized	Compound metabolized	Compound metabolized		Compound metabolized	Compound NOT metabolized	Compound NOT metabolized	Compound NOT metabolized	Compound NOT metabolized	Compound NOT metabolized	Compound metabolized	Compound metabolized			CC(=O)OCC(=O)NCCCOc1cccc(CN2CCCCC2)c1 [ROXATIDINE ACETATE]
Compound metabolized	Compound metabolized	Compound metabolized	Compound metabolized	Compound metabolized		Compound metabolized	Compound NOT metabolized	Compound NOT metabolized		Compound NOT metabolized	Compound metabolized	Compound metabolized			O=C(O)c1cc(/N=N/c2ccc(S(=O)(=O)Nc3ccccn3)cc2)ccc1O [SULFASALAZINE]
Compound metabolized	Compound metabolized	Compound metabolized	Compound metabolized	Compound metabolized	Compound NOT metabolized	Compound NOT metabolized		Compound NOT metabolized	Compound NOT metabolized	Compound metabolized	Compound metabolized	Compound metabolized			CCS(=O)(=O)CCn1c([N+](=O)[O-])cnc1C [TINIDAZOLE]
